Data from article PMC7571217, “Adenosine Receptor Ligands: Coumarin–Chalcone Hybrids as Modulating Agents on the Activity of hARs” (Molecules, 2020).

How the values were obtained:
[1] = target: T1, hA3 (Homo sapiens, UniProt P0DMS8); assay: Radioligand competition binding, [3H]HEMADO, hA3 in CHO cells; conditions: [3H]HEMADO 1 nM, geometric mean of 3 experiments (95% CI)
T1 construct: expressed in transfected cells; host or cells: CHO cells (stably transfected)
T1 sequence (P0DMS8 1-318): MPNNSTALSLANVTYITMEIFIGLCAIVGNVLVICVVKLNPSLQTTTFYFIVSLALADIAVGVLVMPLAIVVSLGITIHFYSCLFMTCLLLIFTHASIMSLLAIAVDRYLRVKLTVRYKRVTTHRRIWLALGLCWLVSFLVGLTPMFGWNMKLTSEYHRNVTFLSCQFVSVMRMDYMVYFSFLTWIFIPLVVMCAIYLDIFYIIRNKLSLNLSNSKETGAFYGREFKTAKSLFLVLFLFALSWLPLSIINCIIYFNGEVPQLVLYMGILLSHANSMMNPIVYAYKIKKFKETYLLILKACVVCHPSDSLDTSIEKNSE
Protocol: (§1) (5′-N-ethylcarboxamidoadenosine) to hA2A; and specific binding of [^3H]HEMADO (2-(1-hexynyl)-N^6-methyladenosine) to hA3. […] Due to the lack of a suitable radioligand for the hA2B receptor, the potency of antagonists at the hA2B receptor was determined by inhibition of NECA-stimulated adenylyl cyclase activity with increasing concentrations of antagonist.
(§2) The binding affinity for hA1, hA2A, hA3 of the synthetized compounds was evaluated using radioligand competition experiments in CHO cells that were stably transfected with the individual receptor subtypes. […] Due to the lack of a suitable radioligand for the hA2B receptor, the potency of antagonists at the hA2B receptor (expressed on CHO cells) was determined by inhibition of NECA-stimulated adenylyl cyclase activity. The IC50 for inhibition of cAMP (cyclic adenosine monophosphate) production was determined and converted to Ki values using the Cheng and Prusoff equation [56].
(§3) Ki values (dissociation constants) were determined in radioligand competition experiments with 7–8 different concentrations of test compound and each concentration was tested in duplicate. […] The program Prism 6 (GraphPad Software) was used for the analysis of the competition curves.

[2] = target: hA1 (Homo sapiens, UniProt P30542); assay: biochemical
Protocol: as §1, §2, §3

[3] = target: T2, hA2A (Homo sapiens, UniProt P29274); assay: Radioligand competition binding, [3H]NECA, hA2A in CHO cells; conditions: [3H]NECA 10 nM
T2 construct: expressed in transfected cells; host or cells: CHO cells (stably transfected)
Protocol: as §1, §2, §3

[4] = target: T1, hA3; conditions: radioligand used at 1 nM; ref [44],[45]; cited from earlier work

Sequence of hA1 (P30542 whole entry): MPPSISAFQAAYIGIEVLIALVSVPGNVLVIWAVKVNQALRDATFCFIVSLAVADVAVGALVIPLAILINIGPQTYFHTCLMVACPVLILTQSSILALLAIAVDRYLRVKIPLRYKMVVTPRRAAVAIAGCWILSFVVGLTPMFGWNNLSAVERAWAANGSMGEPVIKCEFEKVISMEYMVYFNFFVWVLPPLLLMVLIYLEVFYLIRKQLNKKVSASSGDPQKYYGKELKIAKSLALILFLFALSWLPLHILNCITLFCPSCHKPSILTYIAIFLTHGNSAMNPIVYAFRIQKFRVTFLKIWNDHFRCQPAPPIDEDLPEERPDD
T2 sequence (P29274 whole entry): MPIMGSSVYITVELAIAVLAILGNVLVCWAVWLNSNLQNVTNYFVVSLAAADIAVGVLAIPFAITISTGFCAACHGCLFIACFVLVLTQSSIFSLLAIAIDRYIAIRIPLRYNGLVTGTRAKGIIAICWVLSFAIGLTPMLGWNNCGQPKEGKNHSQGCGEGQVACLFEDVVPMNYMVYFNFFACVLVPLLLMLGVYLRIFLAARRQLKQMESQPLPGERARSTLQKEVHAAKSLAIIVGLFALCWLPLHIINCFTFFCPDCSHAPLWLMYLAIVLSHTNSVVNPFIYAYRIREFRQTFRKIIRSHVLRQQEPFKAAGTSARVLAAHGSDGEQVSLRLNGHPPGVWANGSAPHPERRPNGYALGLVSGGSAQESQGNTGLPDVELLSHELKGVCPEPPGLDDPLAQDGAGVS

## O=C(c1ccc(O)c(O)c1)c1cc2cc(O)ccc2oc1=O [Compound 6]
[1]
  Ki: > 60 µM
[2]
  Ki: 54 µM

## O=C(c1ccc(O)c(O)c1)c1cc2c(O)cc(O)cc2oc1=O [Compound 7]
[1]
  Ki: > 30 µM
[2]
  Ki: 17.7 µM

## COc1ccc2oc(=O)c(C(=O)c3ccc(OC)c(OC)c3)cc2c1 [Compound 2, 6-Methoxy-3-(3′,4′-dimethoxybenzoyl)coumarin]
[3]
  Ki: > 100 µM
[1]
  Ki: > 100 µM
[2]
  Ki: > 100 µM
other
  melting point: 202 to 203 °C

## O=C(c1ccc(O)cc1)c1cc2c(O)cc(O)cc2oc1=O [Compound 8, 5,7-Dihydroxy-3-(4′-hydroxybenzoyl)coumarin]
[1]
  Ki: > 60 µM
[2]
  Ki: 29.1 µM
other
  melting point: 290 to 292 °C

## O=C(c1ccc(O)c(O)c1)c1cc2ccccc2oc1=O [Compound 5]
[1]
  Ki: 34.5 µM
[2]
  Ki: 39.5 µM

## COc1ccc(C(=O)c2cc3c(OC)cc(OC)cc3oc2=O)cc1 [Compound 4, 5,7-Dimethoxy-3-(4′-methoxybenzoyl)coumarin]
[1]
  Ki: 2.49 µM
[2]
  Ki: > 100 µM
other
  melting point: 174 to 175 °C

## COc1cc(OC)c2cc(C(=O)c3ccc(OC)c(OC)c3)c(=O)oc2c1 [Compound 3, 5,7-Dimethoxy-3-(3′,4′-dimethoxybenzoyl)coumarin]
[1]
  Ki: 9.03 µM
[2]
  Ki: > 30 µM
other
  melting point: 210 to 211 °C

## COc1ccc(C(=O)c2cc3ccccc3oc2=O)cc1OC [Compound 1, 3-(3′,4′-Dimethoxybenzoyl)coumarin]
[3]
  Ki: > 100 µM
[1]
  Ki: > 100 µM
[2]
  Ki: > 100 µM
other
  melting point: 190 to 191 °C

## CCCCC#Cc1nc(NC)c2ncn([C@@H]3O[C@H](CO)[C@@H](O)[C@H]3O)c2n1 [[^3H]HEMADO, 2-(1-hexynyl)-N^6-methyladenosine]
[4]
  Kd: 0.0012 µM
